Legend:
USP45 = target: T1, USP45 (Homo sapiens, UniProt Q70EL2); experiment: biochemical; set-up: Ubiquigent DUB profiler selectivity panel, remaining enzyme activity as % of control; details: read-out: % of control remaining
T1 sequence (Q70EL2 1-814): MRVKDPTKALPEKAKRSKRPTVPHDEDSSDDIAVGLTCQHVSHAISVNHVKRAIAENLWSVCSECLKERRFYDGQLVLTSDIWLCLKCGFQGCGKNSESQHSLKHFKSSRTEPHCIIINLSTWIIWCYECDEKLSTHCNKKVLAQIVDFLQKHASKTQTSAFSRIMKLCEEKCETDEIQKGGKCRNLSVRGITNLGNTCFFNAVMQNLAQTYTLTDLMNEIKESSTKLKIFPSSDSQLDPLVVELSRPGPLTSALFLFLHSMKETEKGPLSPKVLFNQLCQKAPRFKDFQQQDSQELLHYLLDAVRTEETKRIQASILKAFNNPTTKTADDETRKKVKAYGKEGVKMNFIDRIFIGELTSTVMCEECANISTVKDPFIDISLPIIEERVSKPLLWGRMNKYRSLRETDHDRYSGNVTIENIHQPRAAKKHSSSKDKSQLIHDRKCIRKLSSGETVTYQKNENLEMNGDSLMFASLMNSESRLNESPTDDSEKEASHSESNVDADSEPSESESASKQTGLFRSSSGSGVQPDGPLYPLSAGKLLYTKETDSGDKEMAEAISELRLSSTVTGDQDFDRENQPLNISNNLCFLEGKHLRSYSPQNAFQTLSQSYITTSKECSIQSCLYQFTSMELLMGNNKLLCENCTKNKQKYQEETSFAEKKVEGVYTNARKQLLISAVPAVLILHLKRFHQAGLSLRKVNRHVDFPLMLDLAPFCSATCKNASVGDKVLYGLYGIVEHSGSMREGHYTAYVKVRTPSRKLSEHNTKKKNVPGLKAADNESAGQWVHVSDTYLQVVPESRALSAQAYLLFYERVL
Description: (§1) Previous work has reported IC50 values for a series of benzosulphonamide inhibitors, of which all those <1 μM were screened for selectivity, in comparison to three other USP family members ([20], [21]). We have selected one of these compounds (CMPD-39, Fig 1A) for a more rigorous test of selectivity provided by the Ubiquigent DUB profiler screening platform comprising >40 DUBs. […] To test engagement of the inhibitor with USP30 applied to intact cells, we assayed competition with Ub-PA (Ub-propargylamide). Ub-PA covalently binds to the USP30 active site leading to a characteristic upshift on a SDS–PAGE gel ([22]). If a drug blocks access to the catalytic site, then the probe modification is blocked and the apparent molecular weight of USP30 shifts down accordingly. […] A robust proxy read-out for target engagement is the enhancement of TOMM20 ubiquitylation after mitochondrial depolarization ([6], [16]). This second assay indicates a maximal effect with 200 nM CMPD-39 applied to RPE1-YFP-PRKN cells (Fig 1D).  Figure 1. CMPD-39 is a selective USP30 inhibitor. (A) Chemical structure of CMPD-39. (B) DUB specificity screen (DUB profiler, Ubiquigent) with 1-100 μM CMPD-39. […] Samples were incubated with CMPD-39 for 2 h at the indicated concentrations, then incubated with HA-Ub-PA probe for 10 min at 37°C and immunoblotted as shown. Red arrow indicates unbound USP30; blue arrow represents probe bound USP30. (D) Inhibition of USP30 enhances the ubiquitylation of TOMM20 in YFP-PRKN over-expressing hTERT-RPE1 cells in a concentration dependent manner in response to mitophagy induction. Cells were treated for 1 h with DMSO or antimycin A and oligomycin A (AO; 1 μM each) in the absence or presence of CMPD-39 at the indicated concentrations, lysed, and analyzed by Western blotting. Black arrow indicates unmodified TOMM20, ubiquitylated species are indicated by red (mono-ubiquitylated) or blue arrow heads. […] Source data are available for this figure.

USP8 = target: T2, USP8 (Homo sapiens, UniProt P40818); experiment: biochemical; set-up: Ubiquigent DUB profiler selectivity panel, remaining enzyme activity as % of control; details: read-out: % of control remaining
T2 sequence (P40818 1-1118): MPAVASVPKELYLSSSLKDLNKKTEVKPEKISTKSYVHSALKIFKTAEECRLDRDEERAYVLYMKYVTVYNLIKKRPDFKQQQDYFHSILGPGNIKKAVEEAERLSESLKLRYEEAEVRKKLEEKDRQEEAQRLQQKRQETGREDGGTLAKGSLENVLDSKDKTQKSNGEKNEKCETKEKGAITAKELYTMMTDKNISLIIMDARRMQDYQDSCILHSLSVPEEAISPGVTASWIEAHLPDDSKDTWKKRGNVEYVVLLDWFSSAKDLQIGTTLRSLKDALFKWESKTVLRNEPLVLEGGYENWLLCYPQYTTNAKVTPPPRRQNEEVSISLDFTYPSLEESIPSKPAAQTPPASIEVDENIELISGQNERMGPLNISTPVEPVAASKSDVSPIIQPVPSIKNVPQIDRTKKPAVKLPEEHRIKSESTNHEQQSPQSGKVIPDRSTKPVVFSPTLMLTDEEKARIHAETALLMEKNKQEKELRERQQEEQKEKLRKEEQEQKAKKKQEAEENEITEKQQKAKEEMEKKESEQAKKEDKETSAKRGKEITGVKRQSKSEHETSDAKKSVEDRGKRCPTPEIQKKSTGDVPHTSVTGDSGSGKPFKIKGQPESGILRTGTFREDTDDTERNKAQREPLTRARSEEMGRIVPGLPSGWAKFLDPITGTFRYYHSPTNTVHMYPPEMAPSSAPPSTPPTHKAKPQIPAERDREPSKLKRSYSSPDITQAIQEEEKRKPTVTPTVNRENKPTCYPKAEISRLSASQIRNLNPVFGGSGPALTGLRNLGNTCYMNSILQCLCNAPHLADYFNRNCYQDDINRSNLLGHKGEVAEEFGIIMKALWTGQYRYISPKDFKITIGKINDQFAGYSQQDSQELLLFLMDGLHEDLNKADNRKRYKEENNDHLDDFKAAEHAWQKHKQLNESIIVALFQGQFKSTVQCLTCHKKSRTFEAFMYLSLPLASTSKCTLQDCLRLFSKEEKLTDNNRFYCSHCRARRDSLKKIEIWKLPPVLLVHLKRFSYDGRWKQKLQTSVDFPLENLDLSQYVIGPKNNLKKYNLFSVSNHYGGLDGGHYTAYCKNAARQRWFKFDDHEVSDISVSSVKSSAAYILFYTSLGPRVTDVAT
Description: as §1

CC(C)(C)NS(=O)(=O)c1ccc(NC(=O)[C@H](Cc2ccccc2)NC(=O)c2ccc(F)cc2)cc1 [compound 39, CMPD-39]
remaining activity at 1 µM (USP45): 98.8%
remaining activity at 10 µM (USP45): 95%
remaining activity at 100 µM (USP45): 100%
remaining activity at 1 µM (USP8): 105%
remaining activity at 10 µM (USP8): 100%
remaining activity at 100 µM (USP8): 102%
